The test system of data set [1] is Egyptian cotton moth eggs. Nature of the data set: prevention of hatching of Egyptian cotton moth eggs (immersion, evaluation four days after treatment). The format is in vivo, Spodoptera littoratis (Egyptian cotton moth). The following applies: 96 h. The protocol: The compounds to be used according to the invention were aqueous solutions of the salts or aqueous emulsions of the baes formulated as emulsion concentrates at the desired concentration. The same procedure was followed with the comparison agents trans-2-phenylcyclopropyl aminosulfate and 1-isonicotinyl-2-isopropyl hydrazine phosphate; in the case of isonicotinic acid-2-[2-(benzylcarbamoyl)-ethyl]hydrazide, the compound was dissolved in acetone and diluted with water to the desired concentration.
The criterion for evaluation of the action was the percentual prevention of batching in comparison with untreated eggs.

The test system of the next data set is cabbage moth eggs. Nature of the data set: prevention of hatching of cabbage moth eggs (immersion, evaluation four days after treatment). The format is in vivo. The following applies: Mamestra brassicae, 96 h; for inhibition at 0.1 % / inhibition at 1 %: read-out: prevention of hatching. The method, then: The compounds to be used according to the invention were used as aqueous solutions of the salts or as aqueous emulsions of the bases formulated as emulsion concentrates at the desired concentration. The same procedure was followed with the comparison agents trans-2-phenylcyclopropyl aminosulfate and 1-isonicotinyl-2-isopropyl hydrazine phosphate; in the case of isonicotinic acid-2-[2-(benzylcarbamoyl)-ethyl]-hydrazide, the compound was dissolved in acetone and diluted to the desired concentration with water.
The criterion for the evaluation of action was the percentual prevention of hatching in comparison with untreated eggs.

For data set [2], the system named is cabbage moth (Plutella maculipennis). Nature of the data set: feed damage on sprayed potted mustard seedlings bearing eggs of the cabbage moth (Plutella maculipennis). The following applies: vs untreated plants, 7 days. The class given is in vivo. From the text: The compounds to be used according to the invention were used as aqueous solutions of the salts or as aqueous emulsions of the bases formulated as emulsion concentrates at the desired concentration. The same procedure was followed for the comparison agents trans-2-phenylcyclopropyl aminosulfate and 1-isonicotinyl-2-isopropyl hydrazine phosphate.
After the treatment the pots were set up in aerated glass cylinders for seven days.
The criterion for evaluation of the action was feed damage on the treated plants in comparison with the feed damage on untreated plants.

The next data set relates to monoamino-oxidase. To be noted: generally known; cited from earlier work.
A short description of data set [3]: acute oral toxicity, mouse. The following applies: in vivo, mouse p.o.
Setting [4] is: substance concentration 0.1 (head "(5)"), vs untreated eggs, 4 days, read-out: prevention of hatching.
Setting [5] is: read-out: prevention of batching.
[6] abbreviates: substance concentration 0.04 (head "(5)"), vs untreated eggs, 4 days, read-out: prevention of hatching.
The mark [7] stands for this setting: substance concentration 0.1%, vs untreated eggs, 4 days.
The mark [8] stands for this setting: substance concentration 1.0 (head "(5)"), vs untreated eggs, 4 days, read-out: prevention of hatching.
The mark [9] stands for this setting: substance concentration 1.0%, vs untreated eggs, 4 days.

Consider 16 molecules from patent publication US4156017A, “Pesticides” (Schering Aktiengesellschaft, priority 1977, dated 1979).

The structures appear in SMILES notation. Read-outs that look alike come from different tables or passages of the source.

On to `C#CCN(C)Cc1ccc(Cl)cc1Cl` [Compound 12, 2,4-Dichlorobenzyl-methyl-2-propinyl-ammonium chloride], for which the inhibition at 0.1 % in data set [1] (setting [4]) came to 100%.

`C#CCN(C)Cc1ccc(Cl)cc1` [Compound 2, 4-Chlorobenzyl-methyl-2-propinyl ammonium chloride]: the inhibition at 0.1 % in data set [1] (setting [4]) is 100%.

As for `C#CCN(C)Cc1ccccc1` [Compound 9, Benzyl-methyl-2-propinyl-ammonium-chloride], in data set [1] (setting [5]), the inhibition at 0.1 % is 100%.

Regarding `C#CCN(C)Cc1ccccc1Cl` [Compound 10, 2-Chlorobenzyl-methyl-2-propinyl-ammonium chloride], the inhibition at 0.04 % in data set [1] (setting [6]) is 80%. For the same molecule, the inhibition at 0.1 % with cabbage moth eggs (setting [7]) amounted to 100%.

Regarding `C#CCN(C)Cc1ccc(Cl)c(Cl)c1` [Compound 14, 3,4-Dichlorobenzyl-methyl-2-propinyl-ammonium chloride], in the data set with cabbage moth eggs (substance concentration 0.08%, vs untreated eggs, 4 days), the inhibition at 0.08 % is 100%. For the same molecule, the feed damage in data set [2] (substance concentration 0.05%) is recorded as 0%.

As to `C#CCN(C)Cc1ccc(Cl)cc1` [Compound 1, N-(4-chlorobenzyl)-N-methyl-2-propinylamine], the inhibition at 0.02 % in data set [1] (substance concentration 0.02 (head "(5)"), vs untreated eggs, 4 days) turned out to be 100%. Also, the inhibition at 0.06 % in the data set on cabbage moth eggs (substance concentration 0.06%, vs untreated eggs, 4 days) came to 100%. Further, in data set [2] (substance concentration 0.05%), the feed damage was determined as 0%.

Regarding `O=C(CCNNC(=O)c1ccncc1)NCc1ccccc1` [Isonicotinic acid-2-[2-(benzylcarbamoyl)-ethyl]-hydrazide, reference compound], the inhibition at 1 % (in data set [1] (setting [8]); in the data set with cabbage moth eggs (setting [9])) was 0% in each case. For the same molecule, the inhibition of monoamino-oxidase result in the data set on monoamino-oxidase is on record as “inhibitors of monoamino-oxidase”.

In the case of `N[C@@H]1C[C@H]1c1ccccc1.O=S(=O)(O)O` (relative stereo) [trans-2-Phenylcyclopropyl aminosulfate, trans-2-phenylcyclopropylamine sulfate, reference compound], the inhibition at 1 % (in data set [1] (setting [5]); in the data set with cabbage moth eggs) was 0% throughout. The molecule further had a feed damage in data set [2] (substance concentration 0.1%) of 100%. For the same molecule, the inhibition of monoamino-oxidase result with monoamino-oxidase is “inhibitors of monoamino-oxidase”.

On to `C#CCN(C)Cc1ccc(Cl)cc1Cl` [Compound 7, N-(2,4-dichlorobenzyl)-N-methyl-2-propinylamine], for which the inhibition at 0.04 % in data set [1] (setting [6]) was 100%. Further, in the data set on cabbage moth eggs (setting [7]), the inhibition at 0.1 % is 100%.

Turning to `C#CCN(C)Cc1cccc(Cl)c1` [Compound 5, N-(3-chlorobenzyl)-N-methyl-2-propinylamine], in data set [1] (setting [4]), the inhibition at 0.1 % came to 100%.

Consider `CC(C)NNC(=O)c1ccncc1` [1-isonicotinyl-2-isopropylhydrazine phosphate, reference compound], for which the inhibition at 1 % (in data set [1] (setting [8]); with cabbage moth eggs (setting [9])) was 0% each time. For the same molecule, the feed damage in data set [2] (substance concentration 0.1%) turned out to be 100%. In the data set on monoamino-oxidase, the inhibition of monoamino-oxidase entry was “inhibitors of monoamino-oxidase”.

For the molecule `C#CCN(C)Cc1cccc(OC)c1` [Compound 8, N-(3-methoxybenzyl)-N-methyl-2-propinylamine], the inhibition at 0.1 % in data set [1] (setting [4]) stood at 100%.

Broadly, the LD50 is the dose at which mortality reaches 50%. A lower LD50 goes with a more toxic substance. Turning to `C#CCN(C)Cc1ccccc1` [Compound 3, N-Benzyl-N-methyl-2-propinylamine], the inhibition at 0.04 % in data set [1] (setting [5]) was found to be 100%. For the same molecule, the inhibition at 0.1 % in the data set with cabbage moth eggs came out at 100%. This molecule registered a feed damage in data set [2] (substance concentration 0.05%) of 0%. Besides, in data set [3], the 50% lethal dose (LD50) amounted to 700 mg/kg. For the same molecule, the inhibition of monoamino-oxidase result in the data set with monoamino-oxidase was “inhibitors of monoamino-oxidase”.

As for `C#CCN(C)Cc1cccc(OC)c1` [Compound 13, 3-Methoxybenzyl-methyl-2-propinyl-ammonium chloride], the inhibition at 0.04 % in data set [1] (setting [6]) turned out to be 70%.

Turning to `C#CCN(C)Cc1ccc(Cl)c(Cl)c1` [Compound 6, N-(3,4-dichlorobenzyl)-N-methyl-2-propinylamine], the inhibition at 0.04 % in data set [1] (setting [6]) came out at 100%.

`C#CCN(C)Cc1ccccc1Cl` [Compound 4, N-(2-chlorobenzyl)-N-methyl-2-propinylamine]: the inhibition at 0.1 % in data set [1] (setting [4]) is 100%. The LD50 in data set [3] was 305 mg/kg.
